The test system of assay [1] is J774.1a macrophage cells. Description: Macrophage TNF-α production (Assay 2). Further: key: a ‘+’ indicates a positive result for desired activity; a ‘−’ indicates a negative result for desired activity. The format is cell-based. The note with it: 10 μg/mL test compound, 100 ng/mL LPS, supernatants after 2 hr and 5 hr. The procedure: (§1) Assay 1) In vitro testing in a SHIP enzyme assay. Test compounds were dissolved in a suitable solvent (e.g. EtOH, DMSO and others) and diluted into aqueous buffer (20 mM Tris HCl, pH 7.5 and 10 mM MgCl2). SHIP enzyme assays were performed in 96-well microtitre plates with 10 ng of enzyme/well in a total volume of 25 μL of 20 mM Tris HCl, pH 7.5 and 10 mM MgCl2. SHIP enzyme was incubated with test extracts (provided in solvent) or vehicle for 15 min at 23° C. before the addition of 100 μM inositol-1,3,4,5-tetrakisphosphate (Echelon Biosciences Inc, Salt Lake City, Utah). After 20 min at 37° C. and the amount of inorganic phosphate released assessed by the addition of Malachite Green reagent and absorbance measurement at 650 nm. Assay 2) Macrophage TNF-α production. J774.1a macrophage cells were treated with 10 μg/mL of test compound dissolved in solvent (e.g. cyclodextran) for 40 minutes prior to the addition of 100 ng/mL LPS. Culture supernatants were collected after 2 hr and 5 hr for TNF-α determination by ELISA. Assay 3) Macrophage TNF-α NO assay. J774.1a macrophage cells were treated with 10 μg/ml of test compound dissolved in solvent for 40 minutes prior to the addition of LPS. Culture supernatants were collected after 24 hr. for determination of NO concentration using the Griess reagent. Assay 4) Stimulation of mast cells by FcεRI crosslinking. Mast cells were pre-loaded overnight in BMMC medium lacking IL-3 with 0.1 μg/ml anti-DNP IgE (SPE-7, Sigma, Oakville, Ont). For calcium flux measurements, cells were incubated with 2 μM fura 2-acetoxymethyl ester (Molecular Probes, Eugene, Oreg.) in Tyrode's buffer at 23° C. for 45 min. Cells were then washed and incubated in the presence of the test compound 30 min prior to stimulation with the indicated concentration of DNP-human serum albumin (DNP-HSA). Calcium influx was monitored by spectrofluorometry as described previously. For analysis of intracellular signaling, cells were pre-loaded with anti-DNP IgE as above, pre-treated with the test compound for 30 min at 37° C. and stimulated with 20 ng/ml DNP-HSA for 5 min. Total cell lysates were then prepared and analyzed for phospho-PKB, phospho-p38^MAPK, phospho-MAPK, Grb-2 (Cell Signalling, Mississauga, Ont) and SHIP^6 by immunoblot analysis. Assay 5) Mouse acute cutaneous anaphylaxis model. 6-8 week old CD1 mice (University of British Columbia Animal Facility, Vancouver, BC) were sensitized to the hapten DNP by cutaneous application of 25 μL of 0.5% dinitrofluorobenzene (DNFB) (Sigma, Oakville, Ont) in acetone to the shaved abdomen of mice for two consecutive days. 24 hrs later, test substances (dissolved in 10 μL of 1:2 DMSO:MeOH) were painted on the right ear while the left ear received vehicle control. 30 min after drug application, DNFB was applied to both ears to induce mast cell degranulation. A 6 mm punch was taken from the ear and immediately frozen on dry ice for subsequent determination of neutrophil myeloperoxidase (MPO) activity. Assay 6) Mouse endotoxemia model. 6-8 week old C57B16 mice (VCHRI Mammalian Model of Human Disease Core Facility, Vancouver, BC) were orally administered the test compound 30 min prior to an IP injection of 2 mg/kg of LPS (E. Coli serotype 0111:B4, Sigma, Oakville, Ont). Blood was drawn 2 hrs later for determination of plasma TNFα by ELISA. Assay 7) In vitro Mulitple Myeloma (MM) assay. The ability of SHIP activators to reduce tumor cell survival was assessed in MM cell lines treated with the test compound. The lines OPM1, OPM2, MM.1S and RPMI 8226 were plated at a density of 1×10^5 cells/mL in 200 μL of medium with various concentrations of the test compound, and viable cell numbers were determined on day 3 and day 5 by trypan blue exclusion. The lines RPMI 8226 and U266 were plated at a density of 1×10^6 cells/mL in 250 μL of medium with various concentrations of the test compound. At day 4, the medium of each culture was replaced by fresh medium containing the same concentration of test compound. […]

The next assay concerns J774.1 macrophage cells. Description: TNFα production in LPS-stimulated J774.1 macrophages (Example 9). It counts as cell-based. The note with it: 2 ng/mL LPS. The procedure:
An assay to determine the relative inhibition of TNFα production by Compound 103 compared to Compound 100 was conducted as follows.
J774.1 macrophage cells were plated at 2×10^5 cells/well in 24 well plates. The next day the media was changed and Compound 100, Compound 103 or cyclodextrin carrier were added to the wells at the indicated concentrations for 30 min prior to stimulation of the cells with 2 ng/mL lipopolysaccharide (LPS). LPS activation of macrophages leads to production of TNF alpha which can be detected in the culture supernatant and quantified by ELISA. The results are depicted in a graph in FIG. 1.

For assay [2], the system named is J774.1a macrophage cells. Description: Macrophage TNF-α NO assay (Assay 3), Griess reagent. Further: key: a ‘+’ indicates a positive result for desired activity; a ‘−’ indicates a negative result for desired activity. It counts as cell-based. Conditions: 10 μg/ml test compound, LPS, supernatants after 24 hr. The procedure: as §1
For the next assay, the system named is SHIP enzyme. Description: In vitro SHIP enzyme assay (Assay 1), phosphate release by Malachite Green. It counts as biochemical. Conditions: PI-3,4-P2 20 μM, Compound 100 3 μM, 30 μM IP4. The procedure: as §1
A further assay addresses T1, ΔC2 SHIP (Homo sapiens, UniProt Q92835, DEL725-863).
T1 construct: His6; made in house; host or cells: mammalian expression vector pME18S
T1 sequence (Q92835 with tags, fused parts or gaps DEL725-863): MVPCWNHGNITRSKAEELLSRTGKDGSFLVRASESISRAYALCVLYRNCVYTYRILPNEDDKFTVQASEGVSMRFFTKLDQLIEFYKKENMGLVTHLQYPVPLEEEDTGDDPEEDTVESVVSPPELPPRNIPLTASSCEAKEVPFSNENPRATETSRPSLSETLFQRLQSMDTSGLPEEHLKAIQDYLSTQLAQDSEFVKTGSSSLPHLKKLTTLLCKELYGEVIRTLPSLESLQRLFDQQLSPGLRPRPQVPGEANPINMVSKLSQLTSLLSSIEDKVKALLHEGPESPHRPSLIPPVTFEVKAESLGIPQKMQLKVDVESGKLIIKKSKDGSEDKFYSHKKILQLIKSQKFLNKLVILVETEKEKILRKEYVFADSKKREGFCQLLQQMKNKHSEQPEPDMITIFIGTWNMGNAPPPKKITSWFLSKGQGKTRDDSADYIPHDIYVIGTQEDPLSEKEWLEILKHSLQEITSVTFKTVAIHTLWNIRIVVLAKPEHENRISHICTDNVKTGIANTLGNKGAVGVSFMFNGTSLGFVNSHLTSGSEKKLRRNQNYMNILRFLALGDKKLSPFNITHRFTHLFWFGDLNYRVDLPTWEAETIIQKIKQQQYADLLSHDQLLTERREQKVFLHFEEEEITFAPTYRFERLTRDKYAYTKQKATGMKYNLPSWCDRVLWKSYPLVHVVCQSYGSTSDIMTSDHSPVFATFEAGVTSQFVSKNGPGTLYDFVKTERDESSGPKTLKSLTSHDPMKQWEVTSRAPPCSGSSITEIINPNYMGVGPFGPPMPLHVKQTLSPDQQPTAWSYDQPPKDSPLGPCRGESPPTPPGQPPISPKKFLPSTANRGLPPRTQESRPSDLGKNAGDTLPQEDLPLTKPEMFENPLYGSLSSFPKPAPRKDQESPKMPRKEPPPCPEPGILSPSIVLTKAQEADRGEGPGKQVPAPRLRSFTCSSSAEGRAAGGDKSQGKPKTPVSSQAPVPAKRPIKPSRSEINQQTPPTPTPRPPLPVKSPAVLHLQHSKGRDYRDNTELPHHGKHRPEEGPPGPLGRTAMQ
Description: SHIP enzyme assay with C2 domain deleted SHIP. The format is biochemical. The note with it: PI-3,4-P2 20 μM, Compound 100 3 μM, 30 μM IP4. The text has this:
A His6 tagged SHIP ΔC2 domain deletion mutant (deleting residues 725 to 863) in the mammalian expression vector pME18S was generated by a standard PCR-based methodology. An N-terminal His6 C2 domain construct was also generated by PCR inserted into the pET28C bacterial expression vector using EcoRI and NdeI restriction sites.
The allosteric regulation of enzymes has remained under-appreciated primarily because allosteric effectors are not easy to find. The molecular mechanism by which Compound 100 activated SHIP was investigated, first by performing classical enzyme kinetic analysis of its phosphatase activity. Activity measurements were performed with substrate concentrations from 10-100 μM.
The SHIP protein contains a C2 domain located at the carboxyterminal end of its phosphatase domain. […] SHIP lacking its the C2 domain (ΔC2 SHIP) was prepared.

The next assay has as its system plasma TNFα. Description: Mouse endotoxemia model (Assay 6), plasma TNFα by ELISA. Conditions: oral, 30 min prior to IP 2 mg/kg LPS, plasma TNFα 2 hrs later. The format is in vivo, mice. The procedure: as §1, with “6-8 week old C57B16 mice (VCHRI Mammalian Model of Human Disease Core Facility, Vancouver, BC) were orally administered the test compound 30 min prior to an IP injection of 2 mg/kg of LPS (E. Coli serotype 0111:B4, Sigma, Oakville, Ont). Blood was drawn 2 hrs later for determination of plasma TNFα by ELISA. Assay 7) In vitro Mulitple Myeloma (MM) assay.” left out, “exclusion.” for “exclusion. The lines RPMI 8226 and U266 were plated at a density of 1×10^6 cells/mL in 250 μL of medium with various concentrations of the test compound. At day 4, the medium of each culture was replaced by fresh medium containing the same concentration of test compound.”
In general terms: In an ELISA, binding on a coated surface is turned into a signal by an enzyme label.

A further assay has as its system J2M macrophage cells. Description: TNFα production in LPS-stimulated J2M macrophages (Example 10). Conditions: 2 ng/mL LPS. The format is cell-based. How it is done: An assay to determine the inhibition of macrophage TNFα by varying concentrations of Compound 106 was carried out as follows.
J2M macrophage cells were plated at 2×10^5 cells/well in 24 well plates. The next day the media was changed and Compound 106 or PBS carrier were added to the wells at the indicated concentrations for 30 min prior to stimulation of the cells with 2 ng/mL lipopolysaccharide (LPS). LPS activation of macrophages leads to production of TNFa which can be detected in the culture supernatant and quantified by ELISA. The results are depicted in a graph in FIG. 2.

The subject of assay [3] is Bone marrow derived mast cells. Description: Calcium influx in mast cells after IgE receptor crosslinking (Example 11). It counts as cell-based. The note with it: 1 hr treatment, anti IgE antibody. The procedure:
An assay to determine the inhibition of calcium influx in mast cells by Compound 106 was carried out as follows.
The activation of mast cells by IgE receptor crosslinking leads to an influx of calcium into the cells, followed by degranulation and secretion of pro-inflammatory mediator. Bone marrow derived mast cells were loaded with the fluorescent calcium indicator dye Fura-2 prior to treatment for 1 hr with Compound 106 or PBS carrier. Cells were then stimulated or not with an anti IgE antibody to cross-link the IgE receptors. Calcium influx was then monitored by fluorimetry. The results are depicted in a graph in FIG. 3.

The test system of another assay is Mast cells. Description: Stimulation of mast cells by FcεRI crosslinking (Assay 4). The format is cell-based. Conditions: test compound 30 min prior to DNP-HSA. The procedure: as §1, with “6-8 week old CD1 mice (University of British Columbia Animal Facility, Vancouver, BC) were sensitized to the hapten DNP by cutaneous application of 25 μL of 0.5% dinitrofluorobenzene (DNFB) (Sigma, Oakville, Ont) in acetone to the shaved abdomen of mice for two consecutive days. 24 hrs later, test substances (dissolved in 10 μL of 1:2 DMSO:MeOH) were painted on the right ear while the left ear received vehicle control. 30 min after drug application, DNFB was applied to both ears to induce mast cell degranulation. A 6 mm punch was taken from the ear and immediately frozen on dry ice for subsequent determination of neutrophil myeloperoxidase (MPO) activity. Assay 6) Mouse endotoxemia model. 6-8 week old C57B16 mice (VCHRI Mammalian Model of Human Disease Core Facility, Vancouver, BC) were orally administered the test compound 30 min prior to an IP injection of 2 mg/kg of LPS (E. Coli serotype 0111:B4, Sigma, Oakville, Ont). Blood was drawn 2 hrs later for determination of plasma TNFα by ELISA. Assay 7) In vitro Mulitple Myeloma (MM) assay.” left out, “exclusion.” for “exclusion. The lines RPMI 8226 and U266 were plated at a density of 1×10^6 cells/mL in 250 μL of medium with various concentrations of the test compound. At day 4, the medium of each culture was replaced by fresh medium containing the same concentration of test compound.”

For `Cc1cc(OC(=O)CN)cc2c1[C@]1(C)CCC3C(C)(C)CCC[C@]3(C)[C@H]1C2` (some centres unmarked) [Compound 103], the “Assay 2: Macrophage TNF-α production, desired activity” value in the assay with J774.1a macrophage cells [1] is given as “+”. The “relative inhibition of TNFα production” value in the assay with J774.1 macrophage cells was “Inhibits TNF Alpha Production Better than Compound 100”. Further, in the assay with J774.1a macrophage cells [2], the “Assay 3: Macrophage NO assay, desired activity” value is reported as “+”.

Turning to `CCCCCCCCCCCCCCCC(=O)OC[C@H](COP(=O)(O)O[C@H]1[C@H](O)[C@@H](O)[C@H](OP(=O)(O)O)[C@@H](OP(=O)(O)O)[C@H]1O)OC(=O)CCCCCCCCCCCCCCC` [PI-3,4-P2, reference compound], the “activation of wild-type SHIP enzyme” value in the assay on SHIP enzyme is given as “activated wild-type SHIP enzyme to a similar extent as Compound 100”. For the same molecule, on ΔC2 SHIP, the “enhancement of ΔC2 SHIP activity” value is on record as “could not be enhanced”.

`Cc1cc(OC(=O)C(N)CCCCN)cc2c1[C@]1(C)CCC3C(C)(C)CCC[C@]3(C)[C@H]1C2` (some centres unmarked) [Compound 106]: the “Assay 6: Mouse endotoxemia model, desired activity” value in the assay with plasma TNFα was “+”. In addition, the “inhibition of macrophage TNFα production” value with J2M macrophage cells is on record as “Inhibits Macrophage TNFα Production”. Besides, the “Assay 2: Macrophage TNF-α production, desired activity” value in the assay on J774.1a macrophage cells [1] is listed as “+”. In assay [3], the “inhibition of calcium influx in mast cells” value was “Inhibits Calcium Influx in Mast Cells”. In addition, the “Assay 4: Stimulation of mast cells by FcεRI crosslinking, desired activity” value with Mast cells is listed as “+”. Further, in the assay on J774.1a macrophage cells [2], the “Assay 3: Macrophage NO assay, desired activity” value is on record as “+”.

(Values after patent US20100323990A1, “SHIP 1 MODULATOR PRODRUGS” (THE UNIVERSITY OF BRITISH COLUMBIA, priority 2006, published 2010).)
